Source: US9856225B2, “Substituted phenazines as antimicrobial agents” (University of Florida Research Foundation, Incorporated, priority 2013, dated 2018)
Like-named read-outs stand apart in the source and are kept apart here.

Assays:
Type in all cases: cell-based
[1] = tested on: Staphylococcus aureus (ATCC 25923); test: MIC broth microdilution (CLSI), Luria Broth; settings: for fold more potent than compound 1: from MIC
Method in brief: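 Two-fold serial dilutions (0.10–100 μM, eleven points) in Luria Broth, each well inoculated with 10^5 cells from log-phase culture (OD600 0.5), per CLSI broth microdilution. DMSO vehicle up to 1% v/v as negative control; kanamycin positive control for the staphylococci.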

[2] = tested on: Staphylococcus aureus (ATCC 25923) established biofilm; test: Biofilm dispersion, crystal violet staining; settings: for EC50: Staphylococcus aureus, read-out: Biofilm Dispersion EC50
Method: Biofilm Dispersion Protocol for Staphylococcus aureus (ATCC 25923): A single colony grown on tryptic soy agar (TSA) solid medium is amplified in 2 milliliters of tryptic soy broth (TSB) medium with 0.5% glucose to an OD600=0.8-1.0. The bacterial suspension was then diluted to 1×10^6 CFU/mL in TSB with 0.5% glucose. Sterile 96-well flat-bottomed polystyrene plates (0.1% gelatin coated overnight) were then filled with 200 μL of this bacterial suspension. The plates were then covered and incubated for 24 hours at 37° C. Following this, the contents of the wells were discarded and washed with 200 μL PBS (one time). Then serial, two-fold dilutions of bromophenazine small molecules in 200 μL PBS were delivered into each well. The plates were then covered and incubated for another 24 hours at room temperature. After this incubation time, the plates were gently washed with water three times (wells were rinsed by submerging the entire plates in a tub of cold, running tap water). Remaining biofilms were then fixed with 200 μL of methanol for 15 minutes. The plates were emptied and left to air dry. Upon drying, 100 μL of 1% crystal violet was added to each well for 10 minutes, then washed three times with water and again air dried. For quantitative assessment of biofilm formation 100 μL per well of bleaching solution (methanol:glacial acetic acid:water (v/v/v)=4:1:5 with rotary shaking for 1 hour) was used. Remaining biofilm was measured using a spectrophotometer (absorbance readings at 540 nm).
Further microdilution MIC assays were carried out for 11, 21-26, and 4a-29a against Staphylococcus aureus (ATCC 25923) in Luria Broth media (at ˜10^5 CFUmL^−1) to establish the level of growth inhibition for each compound (see FIGS. 5-13). […] Differentiation of a “biofilm inhibitor” from an antibacterial agent was carried out according to the ratio of MIC/IC50 of biofilm inhibition (based on crystal violet staining dose-response). […] Following the biofilm inhibition screen, bromophenazines 12a, 14a, 18a and 20a were evaluated in three independent biofilm inhibition experiments against Staphylococcus aureus to obtain replicate data. […] In addition to inhibiting biofilm formation, small molecules that are able to disperse or clear preexisting bacterial biofilms would be highly valuable. Six of the bromophenazine analogues (11, 4a, 8a, 23a, 27a, 28a; see Table 2 and FIGS. 18-19) were evaluated in biofilm dispersion assays by allowing Staphylococcus aureus biofilms to establish in 96-well plates for 24 hours at 37° C. After this incubation time, the media and planktonic cells were removed followed by a wash of the 96-well plates with water. Phosphate buffered saline (PBS) was then added to the 96-well plate followed by the addition of bromophenazine compounds (with 2-fold serial dilutions of each compound tested). The resulting plates were then allowed to incubate at room temperature for 24 hours and stained with crystal violet to quantify biofilm dispersion.

[3] = tested on: Acinetobacter baumannii (ATCC 19606); test: Planktonic growth (OD600) in biofilm inhibition assay; settings: for inhibition of growth at 100 µM: Acinetobacter baumannii, ATCC19606, 24 h, A. baumannii ATCC 19606, * = no growth inhibition at 200 μM, read-out: % Growth Inhibition at 100 μM
Method: Each well was inoculated with ˜7×10^6 colony forming units per milliliter (corresponding to an OD600 of 0.01 prepared directly from an overnight culture). A lid was placed on the 96-well plate which was wrapped in suran wrap, placed in a humidifying chamber and incubated under static conditions at 37° C. for 24 hours. Following incubation, the media and planktonic bacteria were then removed from 96-well plates and the wells were then washed with water. The bacterial biofilms within the microtiter wells were stained with 200 μL of an aqueous 0.1% crystal violet solution that was allowed to stand for 10-20 minutes. The crystal violet stain was then removed, the wells were rinsed with water and dried. The crystal violet stain that remained on the inside of the wells (i.e., stained bacterial biofilm) on the inside of the wells was solubilized by the addition of 200 μL ethanol and absorbance was read at OD540 using a spectrophotometer. […] Single data points for all compounds and DMSO controls were tested in two replicate rows in 96-well plates and corresponding absorbance readings were averaged for the quantification of planktonic growth and biofilm formation. Reported percent biofilm inhibition was determined by the comparison of compound treated wells (the average of the two replicate wells) versus vehicle control wells without compound following background subtraction (i.e., an empty, untreated well) and reported from 2 to 4 independent overnight cultures. DMSO was serially diluted at the same concentration as test compounds with a top concentration of 1% v/v.
The bromophenazines were also evaluated against the Gram-negative bacterium Acinetobacter baumannii in order to identify biofilm modulating small molecules against this emerging pathogen. Acinetobacter baumannii is notorious for its ability to persist as bacterial biofilms on hospital surfaces, giving rise to many multidrug-resistant nosocomial infections. Clinical isolates of A. baumannii have been identified that are resistant to every class of antibiotic clinically used. The bromophenazines were evaluated against Acinetobacter baumannii ATCC 19606 in biofilm inhibition assays. Bromophenazines were allowed to incubate in 96-well plates with Acinetobacter baumannii (˜7×10^6 CFUmL^−1 by adjusting an overnight culture to an OD600˜0.01) for 24 hours at 37° C. using Mueller-Hinton broth followed by spectrophometer readings of each plate to evaluate planktonic growth (OD600) and biofilm formation (OD540 after crystal violet stain of biofilms inside microtiter wells). […] This biofilm inhibition with activation of planktonic growth activity was dose-dependent with bromophenazine 17a (see FIG. 20).

[4] = Staphylococcus aureus, ATCC25923, Table 2, S. aureus ATCC 25923, Luria Broth, read-out: MIC
[5] = Table 2, S. aureus ATCC 25923, Luria Broth, read-out: MIC
[6] = ATCC25923, S. aureus ATCC 25923, 24 h in PBS at room temperature
[7] = Staphylococcus aureus, ATCC25923, Table 1, ATCC 25923, range tested 0.10 to 100 μM, read-out: Staphylococcus aureus MIC
[8] = Staphylococcus aureus, ATCC25923, Table 1, ATCC 25923, read-out: Staphylococcus aureus MIC

MIC [1, 4]	MIC [1, 5]	EC50 [2, 6]	Compound	Biofilm Dispersal Agent? ([2]; S. aureus ATCC 25923)	inhibition of growth at 100 µM ([3]; 100 μM)	MIC [1, 7]	MIC [1, 8]	fold more potent than compound 1 ([1]; Staphylococcus aureus)	EC50 ([2]; ATCC25923, 24 h)	increase in planktonic growth ([3]; 100 μM, OD600)	planktonic growth inhibition at 200 μM ([3]; 200 μM)
0.78 to 1.56 µM	1.56 µM	2600 nM	CCC(=O)Oc1c(Br)cc(Br)c2nc3ccccc3nc12 [Compound 4a]	Yes	82 ± 1%	–	–	–	–	–	–
> 100 µM	–	–	O=C(CCCC(=O)Oc1c(Br)cc(Br)c2nc3ccccc3nc12)Oc1c(Br)cc(Br)c2nc3ccccc3nc12 [Compound 5a]	–	-1 ± 6%	–	–	–	–	–	–
0.78 to 1.56 µM	1.56 µM	> 100000 nM	O=C(OCCc1ccccc1)Oc1c(Br)cc(Br)c2nc3ccccc3nc12 [Compound 8a]	No	76 ± 10%	–	–	–	–	–	–
> 100 µM	–	–	O=C(Oc1c(Br)cc(Br)c2nc3ccccc3nc12)c1ccc(Br)cc1 [Compound 12a]	–	3 ± 3%	–	–	–	–	–	–
> 100 µM	–	–	O=C(Oc1c(Br)cc(Br)c2nc3ccccc3nc12)c1ccc(Cl)cc1 [Compound 14a]	–	2 ± 3%	–	–	–	–	–	–
0.78 to 1.56 µM	1.56 µM	–	O=C(Oc1c(Br)cc(Br)c2nc3ccccc3nc12)c1cccc([N+](=O)[O-])c1 [Compound 15a]	–	3 ± 4%	–	–	–	–	–	–
> 100 µM	–	–	Cc1ccc(C(=O)Oc2c(Br)cc(Br)c3nc4ccccc4nc23)cc1 [Compound 18a]	–	-6 ± 6%	–	–	–	–	–	–
0.78 to 1.56 µM	0.78 µM	1400 nM	O=C(Oc1c(Br)cc(Br)c2nc3ccccc3nc12)c1ccco1 [Compound 23a]	Yes	80 ± 1%	–	–	–	–	–	–
0.78 to 1.56 µM	0.78 µM	> 100000 nM	O=C(OCC(Cl)(Cl)Cl)Oc1c(Br)cc(Br)c2nc3ccccc3nc12 [Compound 27a]	No	68 ± 4%	–	–	–	–	–	–
0.78 to 1.56 µM	1.56 µM	2900 nM	COC(=O)Oc1c(Br)cc(Br)c2nc3ccccc3nc12 [Compound 28a]	Yes	92 ± 1%	–	–	–	–	–	–

Compound	MIC [1, 4]	MIC [1, 5]	EC50 [2, 6]	Biofilm Dispersal Agent? ([2]; S. aureus ATCC 25923)	inhibition of growth at 100 µM ([3]; 100 μM)	MIC [1, 7]	MIC [1, 8]	fold more potent than compound 1 ([1]; Staphylococcus aureus)	EC50 ([2]; ATCC25923, 24 h)	increase in planktonic growth ([3]; 100 μM, OD600)	planktonic growth inhibition at 200 μM ([3]; 200 μM)
Oc1c(Br)cc(Br)c2nc3ccccc3nc12 [Compound 11, 2,4-Dibromophenazin-1-ol]	1.56 µM	–	–	Yes	86 ± 3%	1.56 µM	0.55 µg/mL	32 fold	29300 nM	–	–
CC(=O)Oc1c(Br)cc(Br)c2nc3ccccc3nc12 [Compound 21, 2,4-Dibromophenazin-1-yl acetate]	0.78 to 1.56 µM	–	–	–	83 ± 2%	0.78 to 1.56 µM	0.31 to 0.62 µg/mL	32 fold	–	–	–
O=C(Oc1c(Br)cc(Br)c2nc3ccccc3nc12)c1ccccc1 [Compound 23, 2,4-Dibromophenazin-1-yl benzoate]	1.56 µM	–	–	–	-13 ± 7%	1.56 µM	0.72 µg/mL	–	–	~15%	did not inhibit planktonic growth
